# Test results: ChEMBL document CHEMBL1201862, “PubChem BioAssay data set” (2004)
# Where “and” joins values, the source holds several entries; their conditions need not be identical. Equal values may be shown once. Calls of active or inactive are those of the source.
# Tests used:
# [1] = molecular target: Glyceraldehyde-3-phosphate dehydrogenase (Homo sapiens, UniProt P04406)
# Estrogen receptor = molecular target: T1, Estrogen receptor (Homo sapiens, UniProt P03372);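 further: potency for inhibiting coactivator peptide recruitment to the receptor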
# T1 sequence (P03372 whole entry): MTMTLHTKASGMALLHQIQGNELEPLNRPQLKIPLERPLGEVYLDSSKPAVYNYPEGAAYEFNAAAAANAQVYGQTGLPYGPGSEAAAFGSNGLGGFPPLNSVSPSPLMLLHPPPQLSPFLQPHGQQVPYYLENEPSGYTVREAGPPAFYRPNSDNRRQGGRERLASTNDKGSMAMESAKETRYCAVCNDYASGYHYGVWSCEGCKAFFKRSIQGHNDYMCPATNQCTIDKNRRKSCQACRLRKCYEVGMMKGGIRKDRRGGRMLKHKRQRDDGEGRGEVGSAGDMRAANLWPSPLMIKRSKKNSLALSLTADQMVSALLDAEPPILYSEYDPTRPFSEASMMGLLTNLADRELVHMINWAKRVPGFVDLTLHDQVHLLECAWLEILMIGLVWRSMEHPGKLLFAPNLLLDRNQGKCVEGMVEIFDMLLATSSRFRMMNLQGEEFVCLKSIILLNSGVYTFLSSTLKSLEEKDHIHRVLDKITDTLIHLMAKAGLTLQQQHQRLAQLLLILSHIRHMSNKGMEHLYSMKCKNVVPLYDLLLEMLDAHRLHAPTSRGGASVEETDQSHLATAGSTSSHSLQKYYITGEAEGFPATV
# [2] = HEp-2 cell cytotoxicity, dose response, cytotoxicity control for RSV inhibitor project, HTS (AID 2410); format: functional; conditions: human respiratory syncytial virus
# Cytochrome P450 3A4 = Cytochrome P450 3A4 (Homo sapiens, UniProt P08684); conditions: Potency;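 further: confirmatory qHTS run detecting inhibitors and substrates of CYP3A4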
# Cytochrome P450 2C9 = Cytochrome P450 2C9 (Homo sapiens, UniProt P11712); conditions: Potency
# [3] = molecular target: T2, RNA-binding protein pos-1 (Caenorhabditis elegans, UniProt G5EF15); experiment: inhibitors of POS-1/mex-3 RNA binding, dose response, biochemical, fluorescence polarization (AID 1964);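 further: purified POS-1 fused to maltose binding protein made in E. coli; potency of compounds blocking POS-1 binding to fluorescent RNA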
# T2 sequence (G5EF15 whole entry): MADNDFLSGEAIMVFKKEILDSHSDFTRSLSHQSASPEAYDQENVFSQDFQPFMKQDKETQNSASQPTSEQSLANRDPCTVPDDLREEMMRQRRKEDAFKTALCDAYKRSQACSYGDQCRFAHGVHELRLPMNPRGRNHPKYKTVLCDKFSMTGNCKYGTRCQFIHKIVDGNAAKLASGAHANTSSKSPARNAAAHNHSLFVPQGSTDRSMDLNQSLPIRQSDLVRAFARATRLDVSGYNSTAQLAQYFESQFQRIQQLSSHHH
# [4] = molecular target: Induced myeloid leukemia cell differentiation protein Mcl-1 (Homo sapiens, UniProt Q07820); format: functional
# [5] = molecular target: T3, Polyadenylate-binding protein 1 (Homo sapiens, UniProt P11940); experiment: PABP1 MLLE–PAM2 binding inhibitor potency, dose response, biochemical, fluorescence polarization, FITC-PAM2 peptide (AID 602259); format: functional; conditions: read-out: IC50_Mean
# [6] = molecular target: T4, Zinc finger protein mex-5 (Caenorhabditis elegans, UniProt Q9XUB2); experiment: MEX-5/TCR-2 RNA interaction inhibitors, dose response, biochemical, C. elegans, fluorescence polarization (AID 1960)
# T4 sequence (Q9XUB2 whole entry): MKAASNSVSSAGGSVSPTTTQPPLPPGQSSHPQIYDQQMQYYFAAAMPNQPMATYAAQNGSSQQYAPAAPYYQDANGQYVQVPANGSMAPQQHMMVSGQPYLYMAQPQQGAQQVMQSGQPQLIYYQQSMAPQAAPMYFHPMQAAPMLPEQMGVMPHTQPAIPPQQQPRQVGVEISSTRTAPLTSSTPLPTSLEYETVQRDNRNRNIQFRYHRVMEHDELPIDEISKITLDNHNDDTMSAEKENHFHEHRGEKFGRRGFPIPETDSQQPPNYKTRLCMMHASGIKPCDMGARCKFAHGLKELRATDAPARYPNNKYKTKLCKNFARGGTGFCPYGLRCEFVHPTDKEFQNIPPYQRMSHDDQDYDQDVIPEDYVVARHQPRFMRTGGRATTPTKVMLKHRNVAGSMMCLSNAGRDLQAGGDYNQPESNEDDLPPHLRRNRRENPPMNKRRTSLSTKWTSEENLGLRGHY
# [7] = molecular target: T5, Voltage-gated N-type calcium channel alpha-1B subunit/Amyloid beta A4 precursor protein-binding family A member 1 (Homo sapiens, UniProt Q00975+Q02410); format: protein assay
# Vero [8] = experiment: cells; format: functional; conditions: Chlorocebus sabaeus
# Genome polyprotein = Genome polyprotein (dengue virus type 2, UniProt P29990); experiment: Dengue-2 NS5 methyltransferase inhibitors, primary screen, biochemical, confirmation dose response (AID 588689); format: functional
# Hexokinase HKDC1 = molecular target: T6, Hexokinase HKDC1 (Homo sapiens, UniProt Q2TB90); experiment: HKDC1 hexokinase inhibitors, dose response, biochemical, W721R variant (AID 504729); format: functional
# T6 sequence (Q2TB90 whole entry): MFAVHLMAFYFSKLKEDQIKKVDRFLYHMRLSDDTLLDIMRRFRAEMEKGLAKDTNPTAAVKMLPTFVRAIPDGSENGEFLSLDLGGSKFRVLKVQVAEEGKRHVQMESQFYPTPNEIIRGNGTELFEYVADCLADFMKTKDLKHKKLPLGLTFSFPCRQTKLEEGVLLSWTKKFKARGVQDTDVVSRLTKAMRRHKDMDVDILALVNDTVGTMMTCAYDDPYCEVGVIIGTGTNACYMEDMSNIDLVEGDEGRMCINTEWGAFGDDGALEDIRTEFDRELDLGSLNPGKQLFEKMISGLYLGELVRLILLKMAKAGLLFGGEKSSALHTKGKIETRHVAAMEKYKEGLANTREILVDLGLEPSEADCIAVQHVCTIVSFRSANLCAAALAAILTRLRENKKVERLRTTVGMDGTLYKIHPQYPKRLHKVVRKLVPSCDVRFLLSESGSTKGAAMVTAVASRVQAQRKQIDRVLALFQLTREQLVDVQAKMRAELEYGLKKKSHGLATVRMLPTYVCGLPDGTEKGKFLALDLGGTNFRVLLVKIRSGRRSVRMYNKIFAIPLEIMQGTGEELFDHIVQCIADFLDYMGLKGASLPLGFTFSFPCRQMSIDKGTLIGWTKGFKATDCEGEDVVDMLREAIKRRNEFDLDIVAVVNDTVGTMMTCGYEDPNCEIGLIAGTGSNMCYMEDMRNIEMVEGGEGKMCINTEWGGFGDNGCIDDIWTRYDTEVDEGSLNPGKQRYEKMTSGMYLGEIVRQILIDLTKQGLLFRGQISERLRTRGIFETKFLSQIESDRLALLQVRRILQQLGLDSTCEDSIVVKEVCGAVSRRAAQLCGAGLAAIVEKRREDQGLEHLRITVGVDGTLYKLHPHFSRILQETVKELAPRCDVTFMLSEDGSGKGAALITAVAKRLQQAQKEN
# [9] = molecular target: T3, Polyadenylate-binding protein 1; experiment: PABP1 MLLE–PAM2 interaction inhibitors, dose response, miRNA deadenylation inhibitor project, biochemical, fluorescence polarization, Cy5-PAM2 peptide, secondary (AID 602260); format: functional; conditions: read-out: IC50_Mean
# [10] = molecular target: T7, Histone-lysine N-methyltransferase NSD2 (Homo sapiens, UniProt O96028); format: biochemical
# T7 sequence (O96028 whole entry): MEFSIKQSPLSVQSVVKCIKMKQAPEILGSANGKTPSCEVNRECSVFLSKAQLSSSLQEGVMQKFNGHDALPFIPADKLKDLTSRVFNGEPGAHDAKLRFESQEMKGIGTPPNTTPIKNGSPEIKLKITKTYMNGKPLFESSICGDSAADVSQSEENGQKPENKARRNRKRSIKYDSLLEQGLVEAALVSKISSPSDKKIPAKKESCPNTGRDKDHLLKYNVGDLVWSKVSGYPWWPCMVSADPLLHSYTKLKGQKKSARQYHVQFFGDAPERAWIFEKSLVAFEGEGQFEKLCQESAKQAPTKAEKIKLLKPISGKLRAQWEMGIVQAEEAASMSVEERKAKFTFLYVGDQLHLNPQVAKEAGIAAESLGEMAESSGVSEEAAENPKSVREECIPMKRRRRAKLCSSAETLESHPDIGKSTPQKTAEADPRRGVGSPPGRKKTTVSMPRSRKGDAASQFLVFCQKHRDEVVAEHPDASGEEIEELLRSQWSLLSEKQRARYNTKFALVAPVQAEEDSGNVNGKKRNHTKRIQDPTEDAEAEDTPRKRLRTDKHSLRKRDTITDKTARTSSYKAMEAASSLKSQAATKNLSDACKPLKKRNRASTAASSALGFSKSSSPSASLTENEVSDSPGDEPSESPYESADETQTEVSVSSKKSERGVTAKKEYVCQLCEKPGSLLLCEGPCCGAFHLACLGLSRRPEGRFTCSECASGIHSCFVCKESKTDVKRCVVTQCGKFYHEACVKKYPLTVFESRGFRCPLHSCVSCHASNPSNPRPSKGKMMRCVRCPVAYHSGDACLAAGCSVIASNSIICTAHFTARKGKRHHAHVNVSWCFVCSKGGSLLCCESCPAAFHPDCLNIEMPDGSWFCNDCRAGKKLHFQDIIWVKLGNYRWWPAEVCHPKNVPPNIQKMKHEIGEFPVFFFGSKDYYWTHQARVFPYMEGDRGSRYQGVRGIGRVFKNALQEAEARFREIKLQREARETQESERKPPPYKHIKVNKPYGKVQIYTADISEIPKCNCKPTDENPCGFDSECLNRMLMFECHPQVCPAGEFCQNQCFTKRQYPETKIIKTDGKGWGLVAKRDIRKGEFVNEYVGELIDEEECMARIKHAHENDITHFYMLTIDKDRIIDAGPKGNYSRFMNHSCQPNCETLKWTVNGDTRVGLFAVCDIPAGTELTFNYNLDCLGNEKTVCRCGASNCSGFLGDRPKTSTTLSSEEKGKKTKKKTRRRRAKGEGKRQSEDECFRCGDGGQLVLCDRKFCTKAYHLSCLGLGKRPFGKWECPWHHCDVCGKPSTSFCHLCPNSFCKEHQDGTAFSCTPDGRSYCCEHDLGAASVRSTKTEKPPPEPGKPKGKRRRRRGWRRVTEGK
# [11] = molecular target: T5, Voltage-gated N-type calcium channel alpha-1B subunit/Amyloid beta A4 precursor protein-binding family A member 1; format: protein assay; remark: listed apart in the source
# Vero [12] = experiment: Vero cell cytotoxicity, cytotoxicity control for flavivirus capping enzyme inhibitors (AID 588742); format: functional; conditions: Chlorocebus sabaeus
# [13] = molecular target: T8, Alkaline phosphatase, tissue-nonspecific isozyme (Homo sapiens, UniProt P05186); experiment: human TNAP enzyme inhibitors, SAR follow-up, biochemical, luminescent, dose response (AID 1056)
# T8 sequence (P05186 whole entry): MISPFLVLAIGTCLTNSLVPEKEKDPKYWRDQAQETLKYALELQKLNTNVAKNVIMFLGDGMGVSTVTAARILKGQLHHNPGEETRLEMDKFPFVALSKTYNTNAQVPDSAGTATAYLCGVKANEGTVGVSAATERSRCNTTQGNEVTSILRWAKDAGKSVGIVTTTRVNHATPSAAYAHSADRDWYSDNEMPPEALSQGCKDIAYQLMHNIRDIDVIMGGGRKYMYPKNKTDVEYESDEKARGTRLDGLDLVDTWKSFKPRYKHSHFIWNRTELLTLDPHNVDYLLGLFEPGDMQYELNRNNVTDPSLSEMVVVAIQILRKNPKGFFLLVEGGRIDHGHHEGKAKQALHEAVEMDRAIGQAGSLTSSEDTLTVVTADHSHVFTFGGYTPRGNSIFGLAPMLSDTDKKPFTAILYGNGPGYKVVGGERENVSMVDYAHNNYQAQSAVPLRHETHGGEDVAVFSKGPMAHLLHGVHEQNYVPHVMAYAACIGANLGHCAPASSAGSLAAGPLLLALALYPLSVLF
# T5 sequence (Q00975 whole entry): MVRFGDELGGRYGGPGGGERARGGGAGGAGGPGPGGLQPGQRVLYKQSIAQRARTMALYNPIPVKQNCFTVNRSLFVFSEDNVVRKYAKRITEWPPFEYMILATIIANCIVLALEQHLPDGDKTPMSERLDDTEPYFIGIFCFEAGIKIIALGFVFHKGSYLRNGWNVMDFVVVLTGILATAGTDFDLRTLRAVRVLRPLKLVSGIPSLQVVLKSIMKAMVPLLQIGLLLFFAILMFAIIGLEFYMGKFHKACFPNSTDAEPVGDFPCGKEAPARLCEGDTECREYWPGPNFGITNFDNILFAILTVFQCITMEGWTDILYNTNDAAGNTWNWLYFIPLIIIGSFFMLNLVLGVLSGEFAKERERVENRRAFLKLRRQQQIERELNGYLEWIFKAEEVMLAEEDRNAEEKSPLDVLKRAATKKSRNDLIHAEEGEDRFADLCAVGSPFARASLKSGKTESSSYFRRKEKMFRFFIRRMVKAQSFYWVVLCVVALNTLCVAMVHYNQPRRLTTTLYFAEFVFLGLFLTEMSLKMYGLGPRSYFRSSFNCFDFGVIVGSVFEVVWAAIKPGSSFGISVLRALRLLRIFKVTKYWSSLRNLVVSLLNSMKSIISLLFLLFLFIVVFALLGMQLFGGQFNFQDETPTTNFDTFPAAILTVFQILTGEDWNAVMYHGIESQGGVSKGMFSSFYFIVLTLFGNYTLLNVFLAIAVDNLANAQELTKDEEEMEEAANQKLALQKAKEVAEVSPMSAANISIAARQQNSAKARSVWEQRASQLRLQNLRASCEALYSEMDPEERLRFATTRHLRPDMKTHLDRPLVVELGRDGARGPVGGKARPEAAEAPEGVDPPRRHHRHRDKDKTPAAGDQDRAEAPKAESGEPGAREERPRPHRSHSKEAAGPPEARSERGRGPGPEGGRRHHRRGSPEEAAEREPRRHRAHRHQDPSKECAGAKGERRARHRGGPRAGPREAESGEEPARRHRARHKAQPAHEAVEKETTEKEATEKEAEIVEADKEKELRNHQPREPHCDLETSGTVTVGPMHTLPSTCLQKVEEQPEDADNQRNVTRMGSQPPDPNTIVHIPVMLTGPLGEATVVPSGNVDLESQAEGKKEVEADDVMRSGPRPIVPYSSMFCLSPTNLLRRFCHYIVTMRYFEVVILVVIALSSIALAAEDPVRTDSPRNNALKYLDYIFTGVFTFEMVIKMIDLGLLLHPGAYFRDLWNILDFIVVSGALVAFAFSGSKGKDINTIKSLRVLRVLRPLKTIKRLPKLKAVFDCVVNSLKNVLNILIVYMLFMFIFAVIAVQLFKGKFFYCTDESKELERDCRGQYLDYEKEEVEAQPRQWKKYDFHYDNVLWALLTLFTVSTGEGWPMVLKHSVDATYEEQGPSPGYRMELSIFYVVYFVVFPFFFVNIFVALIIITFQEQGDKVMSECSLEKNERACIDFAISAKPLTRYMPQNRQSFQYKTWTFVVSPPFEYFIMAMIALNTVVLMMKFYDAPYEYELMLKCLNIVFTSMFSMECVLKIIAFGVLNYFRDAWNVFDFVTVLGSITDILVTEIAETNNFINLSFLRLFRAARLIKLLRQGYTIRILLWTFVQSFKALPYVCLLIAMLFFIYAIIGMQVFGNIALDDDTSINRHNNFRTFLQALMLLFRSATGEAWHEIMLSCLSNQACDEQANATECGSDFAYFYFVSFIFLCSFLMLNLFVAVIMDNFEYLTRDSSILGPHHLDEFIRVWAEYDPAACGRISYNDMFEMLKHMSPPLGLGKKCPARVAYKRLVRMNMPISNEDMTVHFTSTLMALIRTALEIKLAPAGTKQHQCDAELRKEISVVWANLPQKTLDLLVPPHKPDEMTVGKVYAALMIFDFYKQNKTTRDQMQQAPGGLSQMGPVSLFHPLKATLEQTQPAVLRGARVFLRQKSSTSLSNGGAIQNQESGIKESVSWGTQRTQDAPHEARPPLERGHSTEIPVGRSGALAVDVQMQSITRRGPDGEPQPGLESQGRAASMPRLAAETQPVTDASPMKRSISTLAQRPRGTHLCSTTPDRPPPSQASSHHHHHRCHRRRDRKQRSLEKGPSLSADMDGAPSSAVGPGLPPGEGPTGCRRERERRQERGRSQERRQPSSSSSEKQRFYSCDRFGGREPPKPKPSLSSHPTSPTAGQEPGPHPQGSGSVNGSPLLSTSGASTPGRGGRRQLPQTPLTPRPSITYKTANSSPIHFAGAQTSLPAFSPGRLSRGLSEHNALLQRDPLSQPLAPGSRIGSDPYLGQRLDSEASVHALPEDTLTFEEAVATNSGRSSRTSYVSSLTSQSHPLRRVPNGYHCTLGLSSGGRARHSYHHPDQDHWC
# T5 sequence (Q02410 whole entry): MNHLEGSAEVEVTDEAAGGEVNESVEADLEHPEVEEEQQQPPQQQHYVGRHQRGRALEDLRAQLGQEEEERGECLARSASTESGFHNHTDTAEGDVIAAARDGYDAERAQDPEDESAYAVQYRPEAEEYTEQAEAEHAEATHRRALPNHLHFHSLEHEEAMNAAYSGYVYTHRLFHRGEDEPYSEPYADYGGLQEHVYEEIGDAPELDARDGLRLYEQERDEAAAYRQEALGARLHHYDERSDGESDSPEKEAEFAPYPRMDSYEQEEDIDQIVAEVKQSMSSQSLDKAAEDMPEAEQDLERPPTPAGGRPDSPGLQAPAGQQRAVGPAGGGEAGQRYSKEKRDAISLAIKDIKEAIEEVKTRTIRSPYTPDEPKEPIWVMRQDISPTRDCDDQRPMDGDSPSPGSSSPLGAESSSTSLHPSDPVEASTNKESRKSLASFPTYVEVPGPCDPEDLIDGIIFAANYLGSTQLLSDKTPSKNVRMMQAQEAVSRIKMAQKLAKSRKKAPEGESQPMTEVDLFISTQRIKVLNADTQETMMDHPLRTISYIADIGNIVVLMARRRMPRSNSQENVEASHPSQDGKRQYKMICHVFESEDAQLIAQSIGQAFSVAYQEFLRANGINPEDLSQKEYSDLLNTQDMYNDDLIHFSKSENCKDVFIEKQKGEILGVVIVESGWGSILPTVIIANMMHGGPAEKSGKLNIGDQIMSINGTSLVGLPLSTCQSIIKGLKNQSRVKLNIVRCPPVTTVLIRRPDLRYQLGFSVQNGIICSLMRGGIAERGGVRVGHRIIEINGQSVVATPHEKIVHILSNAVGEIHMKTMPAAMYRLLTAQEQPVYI
# T3 sequence (P11940 whole entry): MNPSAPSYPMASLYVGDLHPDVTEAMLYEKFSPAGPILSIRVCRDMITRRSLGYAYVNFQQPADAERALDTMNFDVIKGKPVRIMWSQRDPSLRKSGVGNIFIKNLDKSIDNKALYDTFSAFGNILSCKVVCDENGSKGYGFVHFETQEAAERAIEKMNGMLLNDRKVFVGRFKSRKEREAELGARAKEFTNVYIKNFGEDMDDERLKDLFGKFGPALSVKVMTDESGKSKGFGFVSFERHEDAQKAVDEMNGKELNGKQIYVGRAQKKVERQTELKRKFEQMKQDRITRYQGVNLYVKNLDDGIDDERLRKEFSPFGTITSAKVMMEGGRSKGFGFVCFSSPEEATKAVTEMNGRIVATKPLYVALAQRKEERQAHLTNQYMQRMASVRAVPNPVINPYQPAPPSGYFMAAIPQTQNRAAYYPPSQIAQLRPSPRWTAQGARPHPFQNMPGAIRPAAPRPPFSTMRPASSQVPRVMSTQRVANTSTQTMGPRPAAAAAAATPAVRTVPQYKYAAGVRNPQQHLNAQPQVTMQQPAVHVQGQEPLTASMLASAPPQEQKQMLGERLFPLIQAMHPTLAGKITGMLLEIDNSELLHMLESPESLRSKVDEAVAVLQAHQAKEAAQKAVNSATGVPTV
# Chain of Cytochrome P450 3A4 (P08684 whole entry): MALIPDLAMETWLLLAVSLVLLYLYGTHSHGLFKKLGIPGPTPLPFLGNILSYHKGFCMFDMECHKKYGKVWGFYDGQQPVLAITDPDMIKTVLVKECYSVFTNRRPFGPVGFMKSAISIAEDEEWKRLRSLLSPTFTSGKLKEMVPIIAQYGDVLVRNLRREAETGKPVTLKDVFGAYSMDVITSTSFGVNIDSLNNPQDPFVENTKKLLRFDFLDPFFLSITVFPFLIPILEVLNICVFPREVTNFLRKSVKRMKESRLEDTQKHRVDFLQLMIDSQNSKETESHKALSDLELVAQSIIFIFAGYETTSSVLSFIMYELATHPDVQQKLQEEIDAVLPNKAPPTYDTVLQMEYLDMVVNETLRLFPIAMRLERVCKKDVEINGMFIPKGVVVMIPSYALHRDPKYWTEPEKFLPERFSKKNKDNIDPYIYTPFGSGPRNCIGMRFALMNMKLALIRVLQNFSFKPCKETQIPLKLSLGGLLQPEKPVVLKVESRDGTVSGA
# Chain of Glyceraldehyde-3-phosphate dehydrogenase (P04406 whole entry): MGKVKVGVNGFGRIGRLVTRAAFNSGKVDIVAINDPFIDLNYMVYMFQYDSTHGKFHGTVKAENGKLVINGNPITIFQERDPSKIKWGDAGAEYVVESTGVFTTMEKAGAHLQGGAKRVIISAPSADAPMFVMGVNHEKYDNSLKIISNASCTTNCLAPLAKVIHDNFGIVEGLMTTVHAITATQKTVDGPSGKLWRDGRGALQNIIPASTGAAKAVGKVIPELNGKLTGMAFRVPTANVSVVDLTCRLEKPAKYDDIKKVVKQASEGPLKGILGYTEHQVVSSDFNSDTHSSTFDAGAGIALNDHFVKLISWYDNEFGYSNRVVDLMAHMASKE
# Chain of Induced myeloid leukemia cell differentiation protein Mcl-1 (Q07820 whole entry): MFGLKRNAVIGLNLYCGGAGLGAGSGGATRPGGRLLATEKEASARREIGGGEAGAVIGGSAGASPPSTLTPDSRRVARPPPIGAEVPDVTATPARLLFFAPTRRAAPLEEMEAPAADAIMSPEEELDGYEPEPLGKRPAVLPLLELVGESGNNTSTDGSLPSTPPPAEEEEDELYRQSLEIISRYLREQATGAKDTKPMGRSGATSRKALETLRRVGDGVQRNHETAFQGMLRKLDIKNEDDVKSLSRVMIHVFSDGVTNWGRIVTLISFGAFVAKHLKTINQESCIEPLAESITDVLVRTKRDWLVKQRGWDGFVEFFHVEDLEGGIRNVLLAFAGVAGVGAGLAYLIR
structure (smiles),measurement,setting,value
O=C1C(Cl)=C(N2CCN(C/C=C/c3ccccc3)CC2)C(=O)N1c1ccc(C(F)(F)F)cc1,IC50,[1],> 50 µM (inconclusive)
Cc1ccc(NS(=O)(=O)c2cccc(C(=O)OCC(=O)NCc3ccco3)c2)cc1,IC50,Estrogen receptor,30.6 µM (not active)
COc1ccccc1/C=C/C(=O)N1CCc2cc(OC)c(OC)cc2C1C (configuration not stated),IC50,cells,17.8 µM (active)
same,CC50,[2],> 50 µM (active)
Cc1ccc(NC(=O)C2CCCN2S(=O)(=O)c2cccc3cccnc23)c(C)c1 (configuration not stated),IC50,cells,1.86 µM (active)
same,CC50,[2],42.9 µM (active)
COc1ccc(OC2C(O)COC2/C=C/c2ccccc2)cc1 (configuration not stated),AC50,Cytochrome P450 3A4,3.16 µM (inconclusive) and 3.98 µM (inconclusive)
same,AC50,Cytochrome P450 2C9,3.16 µM (inconclusive) and 2.51 µM (inconclusive)
CCN(CC)Cc1cc(O)c(CN(CC)CC)cc1O,EC50,[3],14.2 µM (active)
same,IC50,[4],1.58 µM (active)
same,IC50,[5],> 66 µM (inactive)
same,EC50,[6],2.77 µM (active)
same,IC50,[7],2.05 µM (active)
same,CC50,Vero [8],> 25 µM (active)
same,IC50,Genome polyprotein,28.1 µM (active)
same,IC50,Hexokinase HKDC1,17.4 µM (active)
same,IC50,[9],> 66 µM (inactive)
same,AC50,[10],> 20 µM (inactive)
same,IC50,[11],> 56.8 µM (not active)
same,CC50,Vero [12],> 40 µM (active)
COC(=O)c1ccc(OC)c(S(=O)(=O)Nc2ccc3ccccc3c2)c1,IC50,[13],> 10 µM (inactive)
same,IC50,[1],> 10 µM (inconclusive)
